Test results reported in US12552788B2 (priority 2020, dated 2026).

Test system: IFN β-production
Settings: soluble, unformulated form
Experimental: (FIG. 3A) Bioluminescence images of luciferase reporter mice (IFβ+/Δβ-luc); images taken 4, 24 and 48 h post footpad injection of IMDQ-PEG-CHOL, IMDQ-PEG and native IMDQ.
In vivo immune activation imaging. Luciferase reporter mice (IFNβ+/Δβ-luc) with a BALB/c background, aged 7-9 weeks, were housed in individual ventilated cages and given ad libitum access to food and water. 20 mL of IMDQ-PEG-CHOL, IMDQ-PEG or IMDQ were injected subcutaneously in the footpad (n=3) at an equivalent INDQ dose of 2 mg. For in vivo imaging at the given time points, mice were injected subcutaneously with 200 μL D-luciferin and in vivo luminescence imaging was recorded 12 min later using the IVIS Lumina II imaging system. Local (DLN and DLN+foot pad) luminescence and full-body luminescence were quantified using the Living Image 4.4 software.

SMILES: CCCCc1nc2c(N)nc3ccccc3c2n1Cc1ccc(CN)cc1 [IMDQ, 1-(4-(aminomethyl)benzyl)-2-butyl-1H-imidazo[4,5-c]quinolin-4-amine]
- entry into systemic circulation upon local administration: rapidly enters systemic circulation
